From the CheMixHub viscosity set

Assay: xn = mol fraction of the nth substance listed

CCCCNCCCC + c1ccccc1
viscosity [mPa·s], 101 kPa
Conditions	x1 = 0.01077	x1 = 0.02009	x1 = 0.02993	x1 = 0.03893	x1 = 0.04865	x1 = 0.05929	x1 = 0.06883	x1 = 0.07963	x1 = 0.08917
303.15 K	0.5674	0.5699	0.5746	0.5771	0.5809	0.584	0.5864	0.5907	0.5931
313.15 K	0.4959	0.4998	0.503	0.5067	0.511	0.5134	0.515	0.5177	0.5198

CCCCNCCCC + ClC(Cl)Cl
298.15 K, 101.3 kPa
Conditions	viscosity [mPa·s]
x1 = 0.102	0.639
x1 = 0.199	0.717
x1 = 0.3088	0.803
x1 = 0.3714	0.845
x1 = 0.4997	0.904
x1 = 0.6082	0.925
x1 = 0.698	0.907
x1 = 0.7719	0.89
x1 = 0.9007	0.852

CCN(C=O)CC + O
298.16 K, 101 kPa
Conditions	viscosity [mPa·s]
x2 = 0.1029	1.23
x2 = 0.247	1.47
x2 = 0.3904	1.84
x2 = 0.5426	2.38
x2 = 0.6681	2.83
x2 = 0.7344	3
x2 = 0.7646	3.01
x2 = 0.8236	2.9
x2 = 0.8813	2.53

CCCC(=O)O + Cc1ccccc1N
viscosity [mPa·s], 100 kPa
Conditions	x2 = 0.0971	x2 = 0.1896	x2 = 0.2605	x2 = 0.3617	x2 = 0.4825	x2 = 0.5911	x2 = 0.6776	x2 = 0.7516	x2 = 0.8641
303.15 K	1.59	1.78	1.92	2.12	2.35	2.55	2.71	2.84	3.03
308.15 K	1.42	1.58	1.7	1.87	2.07	2.24	2.37	2.48	2.64
313.15 K	1.26	1.4	1.51	1.66	1.83	1.98	2.1	2.19	2.33
318.15 K	1.1	1.23	1.32	1.45	1.6	1.73	1.83	1.91	2.02
